# Experimental data as given in paper PMC5564600 (Oncotarget, 2017).
# Experiments:
# Assay type in all cases: binding
# MAP4K2 = target: T1, MAP4K2 (Homo sapiens, UniProt Q12851); experiment: KINOMEscan, MAP4K2; settings: for remaining binding at 1 µM / remaining binding at 10 µM: kinase MAP4K2; for remaining binding at 1 µM: read-out: % of control at 1 µM; for remaining binding at 10 µM: read-out: % of control at 10 µM
# T1 construct: purchased Ambit Biosciences (scanMAXX KINOMEscan)
# T1 sequence (Q12851 1-820): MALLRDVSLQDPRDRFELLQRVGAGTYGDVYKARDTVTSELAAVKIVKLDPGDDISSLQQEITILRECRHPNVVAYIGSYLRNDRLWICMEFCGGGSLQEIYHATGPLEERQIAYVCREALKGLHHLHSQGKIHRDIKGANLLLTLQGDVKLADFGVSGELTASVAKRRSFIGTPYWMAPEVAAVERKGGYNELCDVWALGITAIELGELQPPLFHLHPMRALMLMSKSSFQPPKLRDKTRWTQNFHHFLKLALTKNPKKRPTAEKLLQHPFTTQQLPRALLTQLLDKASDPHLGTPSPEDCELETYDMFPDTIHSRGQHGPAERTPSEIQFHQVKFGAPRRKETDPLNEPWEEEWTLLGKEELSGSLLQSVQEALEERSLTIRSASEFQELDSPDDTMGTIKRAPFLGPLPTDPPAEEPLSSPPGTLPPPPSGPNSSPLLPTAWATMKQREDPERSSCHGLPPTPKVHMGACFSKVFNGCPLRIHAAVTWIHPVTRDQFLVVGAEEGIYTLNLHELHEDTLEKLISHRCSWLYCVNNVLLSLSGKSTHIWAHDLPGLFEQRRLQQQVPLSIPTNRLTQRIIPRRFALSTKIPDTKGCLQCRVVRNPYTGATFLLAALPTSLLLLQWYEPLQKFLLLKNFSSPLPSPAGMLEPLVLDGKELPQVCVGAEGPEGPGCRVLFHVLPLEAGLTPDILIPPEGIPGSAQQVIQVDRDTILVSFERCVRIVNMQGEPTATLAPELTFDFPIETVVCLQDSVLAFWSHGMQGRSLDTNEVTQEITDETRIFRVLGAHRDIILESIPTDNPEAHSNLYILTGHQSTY
# [1] = target: T2, catalytic JH1 domain of JAK2 (Homo sapiens, UniProt O60674); experiment: KINOMEscan, JAK2 JH1 domain; settings: for remaining binding at 1 µM / remaining binding at 10 µM: kinase JAK2(JH1domain-catalytic); for remaining binding at 1 µM: read-out: % of control at 1 µM; for remaining binding at 10 µM: read-out: % of control at 10 µM
# T2 construct: the catalytic JH1 domains of JAK1 and JAK2; purchased Ambit Biosciences (scanMAXX KINOMEscan)
# T2 sequence (O60674 849-1124 limits assumed): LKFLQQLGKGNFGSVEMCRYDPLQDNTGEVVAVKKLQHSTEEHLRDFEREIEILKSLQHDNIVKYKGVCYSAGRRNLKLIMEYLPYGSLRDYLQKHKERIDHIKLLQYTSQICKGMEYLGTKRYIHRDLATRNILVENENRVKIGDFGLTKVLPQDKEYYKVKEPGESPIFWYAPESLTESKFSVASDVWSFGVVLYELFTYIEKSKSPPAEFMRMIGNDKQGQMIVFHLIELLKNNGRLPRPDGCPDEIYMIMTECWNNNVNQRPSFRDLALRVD
# CLK4 = target: T3, CLK4 (Homo sapiens, UniProt Q9HAZ1); experiment: KINOMEscan, CLK4; settings: for remaining binding at 1 µM: read-out: % of control at 1 µM
# T3 construct: purchased Ambit Biosciences (scanMAXX KINOMEscan)
# T3 sequence (Q9HAZ1 whole entry): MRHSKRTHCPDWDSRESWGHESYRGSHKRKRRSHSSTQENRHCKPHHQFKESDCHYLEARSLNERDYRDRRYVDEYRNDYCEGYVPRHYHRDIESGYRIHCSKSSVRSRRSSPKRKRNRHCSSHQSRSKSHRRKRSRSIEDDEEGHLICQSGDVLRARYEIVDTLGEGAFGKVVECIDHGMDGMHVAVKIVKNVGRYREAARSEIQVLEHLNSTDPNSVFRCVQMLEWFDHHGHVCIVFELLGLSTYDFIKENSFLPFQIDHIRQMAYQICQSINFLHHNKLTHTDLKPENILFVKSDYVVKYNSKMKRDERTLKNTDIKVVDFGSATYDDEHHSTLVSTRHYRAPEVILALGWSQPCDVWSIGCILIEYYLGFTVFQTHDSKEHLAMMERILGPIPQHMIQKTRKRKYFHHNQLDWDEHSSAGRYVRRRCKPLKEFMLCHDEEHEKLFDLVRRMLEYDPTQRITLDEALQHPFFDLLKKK
# [2] = target: T4, catalytic JH1 domain of JAK1 (Homo sapiens, UniProt P23458); experiment: KINOMEscan, JAK1 JH1 domain; settings: for remaining binding at 1 µM / remaining binding at 10 µM: kinase JAK1(JH1domain-catalytic); for remaining binding at 1 µM: read-out: % of control at 1 µM; for remaining binding at 10 µM: read-out: % of control at 10 µM
# T4 construct: the catalytic JH1 domains of JAK1 and JAK2; purchased Ambit Biosciences (scanMAXX KINOMEscan)
# T4 sequence (P23458 875-1153 limits assumed): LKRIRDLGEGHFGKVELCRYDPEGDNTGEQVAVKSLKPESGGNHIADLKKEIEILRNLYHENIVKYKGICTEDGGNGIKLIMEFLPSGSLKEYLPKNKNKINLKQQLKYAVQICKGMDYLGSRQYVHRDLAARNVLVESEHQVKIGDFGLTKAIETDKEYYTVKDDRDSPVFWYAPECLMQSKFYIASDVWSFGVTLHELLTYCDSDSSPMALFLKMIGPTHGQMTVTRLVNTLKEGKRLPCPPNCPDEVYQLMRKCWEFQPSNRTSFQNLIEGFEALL
# FLT3 (D835Y mutant) = target: T5, FLT3 (D835Y mutant) (Homo sapiens, UniProt P36888, D835Y); experiment: KINOMEscan, FLT3 D835Y; settings: for remaining binding at 1 µM / remaining binding at 10 µM: FLT3(D835Y); for remaining binding at 1 µM: read-out: % of control at 1 µM; for remaining binding at 10 µM: read-out: % of control at 10 µM
# T5 construct: purchased Ambit Biosciences (scanMAXX KINOMEscan)
# T5 sequence (P36888 27-993 D835Y): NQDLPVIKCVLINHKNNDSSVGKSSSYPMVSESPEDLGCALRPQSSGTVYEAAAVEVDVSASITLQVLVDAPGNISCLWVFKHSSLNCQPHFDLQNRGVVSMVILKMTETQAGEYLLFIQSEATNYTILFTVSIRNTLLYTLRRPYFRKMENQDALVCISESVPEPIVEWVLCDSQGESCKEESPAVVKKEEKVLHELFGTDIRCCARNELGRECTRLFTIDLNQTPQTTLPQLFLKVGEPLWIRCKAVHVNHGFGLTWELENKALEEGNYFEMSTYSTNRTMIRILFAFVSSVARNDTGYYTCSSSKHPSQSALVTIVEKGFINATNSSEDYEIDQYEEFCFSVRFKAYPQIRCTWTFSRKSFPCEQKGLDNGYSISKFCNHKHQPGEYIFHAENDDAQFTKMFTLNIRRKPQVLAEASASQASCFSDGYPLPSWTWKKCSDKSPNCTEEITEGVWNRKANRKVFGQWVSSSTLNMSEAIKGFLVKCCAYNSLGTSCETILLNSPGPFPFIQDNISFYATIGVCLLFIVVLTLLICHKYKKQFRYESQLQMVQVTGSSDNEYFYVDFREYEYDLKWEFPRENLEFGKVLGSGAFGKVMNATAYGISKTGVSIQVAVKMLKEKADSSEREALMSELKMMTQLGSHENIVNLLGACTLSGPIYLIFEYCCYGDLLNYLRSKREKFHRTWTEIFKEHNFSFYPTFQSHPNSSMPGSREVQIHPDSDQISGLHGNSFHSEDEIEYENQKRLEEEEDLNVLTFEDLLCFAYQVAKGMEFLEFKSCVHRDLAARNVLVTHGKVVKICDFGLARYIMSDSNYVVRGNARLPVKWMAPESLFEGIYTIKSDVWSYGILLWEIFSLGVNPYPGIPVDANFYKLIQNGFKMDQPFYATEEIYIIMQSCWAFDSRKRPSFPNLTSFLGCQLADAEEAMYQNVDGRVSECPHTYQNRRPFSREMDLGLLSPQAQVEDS
# G2019S mutant of LRRK2 = target: T6, G2019S mutant of LRRK2 (Homo sapiens, UniProt Q5S007, G2019S); experiment: KINOMEscan, LRRK2 G2019S; settings: for remaining binding at 1 µM / remaining binding at 10 µM: kinase LRRK2(G2019S); for remaining binding at 1 µM: read-out: % of control at 1 µM; for remaining binding at 10 µM: read-out: % of control at 10 µM
# T6 construct: purchased Ambit Biosciences (scanMAXX KINOMEscan)
# CLK2 = target: T7, CLK2 (Homo sapiens, UniProt P49760); experiment: KINOMEscan, CLK2; settings: for remaining binding at 1 µM: read-out: % of control at 1 µM
# T7 construct: purchased Ambit Biosciences (scanMAXX KINOMEscan)
# T7 sequence (P49760 whole entry): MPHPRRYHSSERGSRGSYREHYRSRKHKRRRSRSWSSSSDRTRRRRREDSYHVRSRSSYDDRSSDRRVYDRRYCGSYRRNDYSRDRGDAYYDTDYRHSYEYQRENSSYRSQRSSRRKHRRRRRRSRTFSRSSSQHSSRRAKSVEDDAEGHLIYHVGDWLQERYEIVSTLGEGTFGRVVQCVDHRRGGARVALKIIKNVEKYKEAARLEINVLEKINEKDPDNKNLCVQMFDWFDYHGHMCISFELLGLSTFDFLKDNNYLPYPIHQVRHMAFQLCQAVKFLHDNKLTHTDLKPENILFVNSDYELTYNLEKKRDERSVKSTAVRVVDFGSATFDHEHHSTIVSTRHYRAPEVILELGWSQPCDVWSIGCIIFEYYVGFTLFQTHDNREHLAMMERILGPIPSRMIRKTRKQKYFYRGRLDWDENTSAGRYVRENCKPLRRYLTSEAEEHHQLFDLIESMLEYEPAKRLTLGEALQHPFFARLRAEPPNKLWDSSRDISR
# ERBB3 = target: T8, ERBB3 (Homo sapiens, UniProt P21860); experiment: KINOMEscan, ERBB3; settings: for remaining binding at 1 µM / remaining binding at 10 µM: ERBB3; for remaining binding at 1 µM: read-out: % of control at 1 µM; for remaining binding at 10 µM: read-out: % of control at 10 µM
# T8 construct: purchased Ambit Biosciences (scanMAXX KINOMEscan)
# panel of 442 kinases [3] = target: T9, panel of 442 kinases (Homo sapiens, UniProt P80192); experiment: biochemical; settings: kinase MLK1; for remaining activity at 1 µM: read-out: % of control at 1 µM
# T9 construct: purchased Ambit Biosciences (scanMAXX KINOMEscan)
# T9 sequence (P80192 whole entry): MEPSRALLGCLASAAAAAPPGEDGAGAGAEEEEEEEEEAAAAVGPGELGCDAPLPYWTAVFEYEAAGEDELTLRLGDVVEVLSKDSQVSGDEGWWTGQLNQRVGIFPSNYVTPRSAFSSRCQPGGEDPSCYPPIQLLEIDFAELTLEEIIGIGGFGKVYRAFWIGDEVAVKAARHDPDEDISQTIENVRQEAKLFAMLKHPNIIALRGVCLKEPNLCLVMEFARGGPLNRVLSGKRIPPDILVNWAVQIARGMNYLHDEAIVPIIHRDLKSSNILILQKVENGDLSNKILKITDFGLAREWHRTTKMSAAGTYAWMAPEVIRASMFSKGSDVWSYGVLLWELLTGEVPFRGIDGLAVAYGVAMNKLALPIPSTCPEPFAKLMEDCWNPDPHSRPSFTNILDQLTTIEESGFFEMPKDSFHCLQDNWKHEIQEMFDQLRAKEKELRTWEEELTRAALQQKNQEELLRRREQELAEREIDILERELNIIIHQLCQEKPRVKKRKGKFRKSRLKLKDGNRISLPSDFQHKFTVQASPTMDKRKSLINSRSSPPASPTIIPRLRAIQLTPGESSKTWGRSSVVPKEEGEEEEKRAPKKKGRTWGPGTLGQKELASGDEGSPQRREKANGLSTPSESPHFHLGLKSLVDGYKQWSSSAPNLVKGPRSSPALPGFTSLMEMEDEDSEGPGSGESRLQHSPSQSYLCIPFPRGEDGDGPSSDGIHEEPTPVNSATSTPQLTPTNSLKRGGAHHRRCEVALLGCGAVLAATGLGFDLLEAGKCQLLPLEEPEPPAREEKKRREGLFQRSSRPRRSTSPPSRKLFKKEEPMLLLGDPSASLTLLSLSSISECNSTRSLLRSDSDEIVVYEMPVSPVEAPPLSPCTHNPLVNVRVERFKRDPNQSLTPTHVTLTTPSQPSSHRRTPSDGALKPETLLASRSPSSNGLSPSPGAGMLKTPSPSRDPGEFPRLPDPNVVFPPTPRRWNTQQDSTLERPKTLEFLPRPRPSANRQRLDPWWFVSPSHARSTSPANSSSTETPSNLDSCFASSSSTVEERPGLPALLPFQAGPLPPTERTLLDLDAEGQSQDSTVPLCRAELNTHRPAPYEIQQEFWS
# panel of 442 kinases [4] = target: T10, panel of 442 kinases (Homo sapiens, UniProt P07948); experiment: biochemical; settings: kinase LYN; for remaining activity at 1 µM: read-out: % of control at 1 µM
# T10 construct: purchased Ambit Biosciences (scanMAXX KINOMEscan)
# panel of 442 kinases [5] = target: T11, panel of 442 kinases (Homo sapiens, UniProt Q9NYY3); experiment: biochemical; settings: kinase PLK2; for remaining activity at 1 µM: read-out: PLK2 (% of control at 1 µM)
# T11 construct: purchased Ambit Biosciences (scanMAXX KINOMEscan)
# T11 sequence (Q9NYY3 whole entry): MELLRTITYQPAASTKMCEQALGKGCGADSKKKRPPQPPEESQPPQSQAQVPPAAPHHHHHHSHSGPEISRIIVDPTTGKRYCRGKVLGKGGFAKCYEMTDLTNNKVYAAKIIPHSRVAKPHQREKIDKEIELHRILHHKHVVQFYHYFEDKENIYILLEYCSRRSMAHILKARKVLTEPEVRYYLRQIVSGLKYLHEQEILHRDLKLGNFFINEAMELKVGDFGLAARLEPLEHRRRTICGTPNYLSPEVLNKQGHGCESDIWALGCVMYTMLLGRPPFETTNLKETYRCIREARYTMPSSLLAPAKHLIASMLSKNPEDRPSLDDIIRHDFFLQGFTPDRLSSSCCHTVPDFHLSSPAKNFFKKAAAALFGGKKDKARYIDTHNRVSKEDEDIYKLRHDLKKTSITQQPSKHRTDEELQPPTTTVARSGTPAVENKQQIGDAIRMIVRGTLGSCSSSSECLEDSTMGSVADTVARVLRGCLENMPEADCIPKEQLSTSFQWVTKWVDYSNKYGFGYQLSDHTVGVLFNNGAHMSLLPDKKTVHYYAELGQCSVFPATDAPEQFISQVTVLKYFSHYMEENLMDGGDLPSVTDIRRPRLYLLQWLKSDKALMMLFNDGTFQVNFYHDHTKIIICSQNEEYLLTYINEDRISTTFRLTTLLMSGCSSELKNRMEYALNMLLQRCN
# PIK3C2B = target: T12, PIK3C2B (Homo sapiens, UniProt O00750); experiment: KINOMEscan, PIK3C2B; settings: for remaining binding at 1 µM / remaining binding at 10 µM: kinase PIK3C2B; for remaining binding at 1 µM: read-out: % of control at 1 µM; for remaining binding at 10 µM: read-out: % of control at 10 µM
# T12 construct: purchased Ambit Biosciences (scanMAXX KINOMEscan)
# T12 sequence (O00750 whole entry): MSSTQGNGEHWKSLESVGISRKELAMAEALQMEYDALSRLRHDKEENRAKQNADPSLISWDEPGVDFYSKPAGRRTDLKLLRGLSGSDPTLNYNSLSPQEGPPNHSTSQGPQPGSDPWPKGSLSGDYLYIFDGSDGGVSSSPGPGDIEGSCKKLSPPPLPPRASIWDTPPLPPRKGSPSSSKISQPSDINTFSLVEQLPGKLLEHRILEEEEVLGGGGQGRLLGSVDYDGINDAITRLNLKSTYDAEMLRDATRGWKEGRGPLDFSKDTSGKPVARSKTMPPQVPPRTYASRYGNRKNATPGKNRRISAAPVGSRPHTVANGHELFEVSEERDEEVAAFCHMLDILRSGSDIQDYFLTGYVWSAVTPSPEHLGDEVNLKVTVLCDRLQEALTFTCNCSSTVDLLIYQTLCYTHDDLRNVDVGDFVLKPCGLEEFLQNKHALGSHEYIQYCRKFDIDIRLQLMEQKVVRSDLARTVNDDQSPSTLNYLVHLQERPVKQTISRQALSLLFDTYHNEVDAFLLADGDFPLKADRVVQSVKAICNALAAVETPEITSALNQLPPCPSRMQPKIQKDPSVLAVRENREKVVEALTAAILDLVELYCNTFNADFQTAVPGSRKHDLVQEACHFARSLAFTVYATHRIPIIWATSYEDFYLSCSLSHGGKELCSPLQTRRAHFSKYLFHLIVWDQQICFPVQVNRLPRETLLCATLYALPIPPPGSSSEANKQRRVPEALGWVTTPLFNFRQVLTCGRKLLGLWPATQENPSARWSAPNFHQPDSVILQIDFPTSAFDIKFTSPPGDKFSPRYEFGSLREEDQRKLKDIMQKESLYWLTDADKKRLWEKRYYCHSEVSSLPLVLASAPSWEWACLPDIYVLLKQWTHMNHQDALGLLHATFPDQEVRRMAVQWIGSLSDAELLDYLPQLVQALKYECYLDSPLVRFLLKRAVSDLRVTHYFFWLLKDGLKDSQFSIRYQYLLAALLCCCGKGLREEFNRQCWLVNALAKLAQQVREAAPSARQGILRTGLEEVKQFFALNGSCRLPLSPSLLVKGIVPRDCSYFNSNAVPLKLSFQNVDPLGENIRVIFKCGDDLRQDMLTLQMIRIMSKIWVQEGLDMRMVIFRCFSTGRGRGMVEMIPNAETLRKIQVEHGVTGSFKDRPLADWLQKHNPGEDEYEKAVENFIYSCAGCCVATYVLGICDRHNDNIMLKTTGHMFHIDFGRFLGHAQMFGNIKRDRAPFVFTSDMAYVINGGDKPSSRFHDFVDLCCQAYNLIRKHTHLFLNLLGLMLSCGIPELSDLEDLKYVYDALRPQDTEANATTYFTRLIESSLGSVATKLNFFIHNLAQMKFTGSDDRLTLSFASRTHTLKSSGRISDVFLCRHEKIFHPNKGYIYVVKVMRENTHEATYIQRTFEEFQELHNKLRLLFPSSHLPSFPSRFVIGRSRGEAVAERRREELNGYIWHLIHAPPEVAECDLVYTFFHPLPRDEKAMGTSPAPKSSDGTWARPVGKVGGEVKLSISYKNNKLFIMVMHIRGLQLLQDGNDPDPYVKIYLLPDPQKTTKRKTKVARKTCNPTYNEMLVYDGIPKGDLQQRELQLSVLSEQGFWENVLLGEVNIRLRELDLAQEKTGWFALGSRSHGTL
# [6] = 10 µM, read-out: % of control at 10 µM
Structure (SMILES),remaining binding at 1 µM (MAP4K2),remaining binding at 10 µM (MAP4K2),remaining binding at 1 µM [1],remaining binding at 10 µM [1],remaining binding at 1 µM (CLK4; CLK4),remaining binding at 1 µM [2],remaining binding at 10 µM [2],remaining binding at 1 µM (FLT3 (D835Y mutant)),remaining binding at 10 µM (FLT3 (D835Y mutant)),remaining binding at 1 µM (G2019S mutant of LRRK2),remaining binding at 10 µM (G2019S mutant of LRRK2),remaining binding at 1 µM (CLK2; CLK2),remaining binding at 1 µM (ERBB3),remaining binding at 10 µM (ERBB3),remaining activity at 1 µM (panel of 442 kinases [3]),remaining activity at 1 µM (panel of 442 kinases [4]),remaining activity at 1 µM (panel of 442 kinases [5]),remaining binding at 1 µM (PIK3C2B),remaining binding at 10 µM (PIK3C2B),off-target binding to PIK3C2B (PIK3C2B; 1 μM),other results
Nc1cc(C(F)(F)F)c(-c2cc(N3CCOCC3)nc(N3CCOCC3)n2)cn1 [Buparlisib],82%,100%,63%,79%,38%,96%,100%,70%,42%,88%,80%,29%,100%,90%,92%,84%,89%,97%,100%,,"binding to CLK4 (CLK4; 10 μM): > 80%; remaining binding at 10 µM (CLK4; CLK4, 10 µM, read-out: % of control at 10 µM): 13%; binding to CLK2 (CLK2; 10 μM): > 80%; remaining binding at 10 µM (CLK2; CLK2, 10 µM, read-out: % of control at 10 µM): 18%; remaining activity at 10 µM (panel of 442 kinases [3]; [6]): 99%; remaining activity at 10 µM (panel of 442 kinases [4]; [6]): 100%; remaining activity at 10 µM (panel of 442 kinases [5]; 10 µM, read-out: PLK2 (% of control at 10 µM)): 100%"
COc1ncc(-c2ccc3nccc(-c4ccnnc4)c3c2)cc1NS(=O)(=O)c1ccc(F)cc1F [Omipalisib],100%,,90%,,100%,100%,,100%,,87%,,92%,95%,,100%,100%,100%,0%,,non-selective,
"FC(F)c1nc2ccccc2n1-c1nc(N2CCOCC2)nc(N2CCOCC2)n1 [ZSTK474, 2-(difluoromethyl)-1-[4,6-di(4-morpholinyl)-1,3,5-triazin-2-yl]-1H-benzimidazole]",85%,,100%,,96%,98%,,84%,,0.3%,,100%,24%,,99%,100%,100%,0.85%,,high binding affinity,binding to LRRK2 G2019S (G2019S mutant of LRRK2; 1 μM): 99.7%
"CS(=O)(=O)N1CCN(Cc2cc3nc(-c4cccc5[nH]ncc45)nc(N4CCOCC4)c3s2)CC1 [Pictilisib, 2-(1H-indazol-4-yl)-6-(4-methanesulfonyl-piperazin-1-ylmethyl)-4-morpholin-4-yl-t hieno[3,2-d]pyrimidine]",100%,61%,100%,26%,,100%,100%,,5.4%,82%,51%,,100%,96%,,,,54%,0.45%,,off-target activity against PIK3C2B (PIK3C2B; 10 μM): active
"Cn1c(=O)n(-c2ccc(C(C)(C)C#N)cc2)c2c3cc(-c4cnc5ccccc5c4)ccc3ncc21 [Dactolisib, 2-methyl-2-[4-(3-methyl-2-oxo-8-quinolin-3-yl-2,3-dihydroimidazo[4,5-c]quinolin-1-yl)-phenyl] propionitrile]",0.25%,,8.2%,,12%,12%,,13%,,53%,,81%,9.2%,,86%,87%,100%,9.9%,,,inhibition at 1 µM (MAP4K2; 1 μM): > 80%; inhibition at 1 µM ([1]; 1 μM): > 80%; inhibition at 1 µM (CLK4; 1 μM): > 80%; inhibition at 1 µM ([2]; 1 μM): > 80%; inhibition at 1 µM (FLT3 (D835Y mutant); 1 μM): > 80%; inhibition at 1 µM (ERBB3; 1 μM): > 80%; inhibition at 1 µM (PIK3C2B; 1 μM): > 80%
